Values of other authors in paper PMC2686615 (International Immunology, 2009).

Tests used:
HLA-DQ transgenic mice = conditions: immunization with peptides; cited from earlier work
NOD.DQ8 mice = conditions: oral response to gliadin, 26 peptides tested; cited from earlier work

Row | Sequence | T cell response (HLA-DQ transgenic mice) | T cell response (NOD.DQ8 mice)
1 | ENVVVKVYTV [allergen P2 102–110] | elicited T cell responses | 
2 | QSTYQLLQE [gliadin 147–155] |  | negative
3 | VVTVKVMGD [allergen P2 105–113] | failed to stimulate T cell responses | 
